In PMC11062899, “De novo development of small cyclic peptides that are orally bioavailable” (Nature Chemical Biology, 2023):
Values joined by “and” are separate entries in the source; they are usually repeats but may differ in a detail not shown here. Equal entries are not always repeated. Where two headings read alike, the source gives them in different places.

What was measured:
[1] = target: human α-thrombin (Homo sapiens, UniProt P00734); assay: Protease inhibition, Ki for human α-thrombin (fluorogenic substrate Z-Gly-Gly-Arg-AMC); format: biochemical; settings: for Human alpha thrombin inhibition, slope normalized to DMSO: replicates R1-R3
In short: (§1)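 Inhibition was measured as AMC fluorescence from 50 μM substrate, monitored for 30 min at 25 °C, relative to a peptide-free control. Human and rat enzymes were present at 2 nM and 3 nM final, respectively, in 50 mM Tris-HCl pH 7.4, 150 mM NaCl, 10 mM MgCl2, 1 mM CaCl2. Ki derives from fitted IC50 via Cheng–Prusoff.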

[2] = target: T1, rat α-thrombin (Rattus norvegicus, UniProt P18292); assay: Protease inhibition, Ki for rat α-thrombin (fluorogenic substrate Z-Gly-Gly-Arg-AMC); format: biochemical; settings: for Slope normalized to DMSO (proteolytic substrate cleavage over time) / Rat alpha thrombin inhibition, slope normalized to DMSO: replicates R1-R3
T1 construct: rat α-thrombin (Molecular Innovations) were used at final concentrations of 2 nM and 3 nM; purchased Molecular Innovations
In short: as §1

[3] = target: T2, porcine pepsin (Sus scrofa, UniProt P00791); assay: Peptide stability in simulated gastric fluid (SGF); format: in vitro ADME
T2 construct: 0.32 g of porcine pepsin (Sigma-Aldrich, P7125) was dissolved under gentle agitation; purchased Sigma-Aldrich P7125
In short: (§2)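 Peptide from a 1 mM DMSO stock was added to fluid pre-warmed at 37 °C. SGF was pH 1.2 NaCl with porcine pepsin (0.32 g per 100 ml), and SIF was pH 6.8 potassium phosphate with porcine pancreatin (1 g per 100 ml). Supernatant peptide was quantified by LC–MS, with residual expressed as T1/T0.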

[4] = Peptide stability in simulated intestinal fluid (SIF); format: in vitro ADME, porcine; settings: pig, simulated gi fluid; 8 h, 37 °C, pH 6.8; read-out: Proteolytic stability: SIF (8 h) % remaining
In short: as §2

[5] = test system: porcine pancreatin; assay: as above; format: in vitro ADME; settings: after 8 h vs 0 h (TIC)
In short: as §2

[6] = Passive artificial membrane permeability (PAMPA)
[7] = peptide 1.33E+02 uM, slope of proteolytic substrate cleavage over time

T2 sequence (P00791 60-385): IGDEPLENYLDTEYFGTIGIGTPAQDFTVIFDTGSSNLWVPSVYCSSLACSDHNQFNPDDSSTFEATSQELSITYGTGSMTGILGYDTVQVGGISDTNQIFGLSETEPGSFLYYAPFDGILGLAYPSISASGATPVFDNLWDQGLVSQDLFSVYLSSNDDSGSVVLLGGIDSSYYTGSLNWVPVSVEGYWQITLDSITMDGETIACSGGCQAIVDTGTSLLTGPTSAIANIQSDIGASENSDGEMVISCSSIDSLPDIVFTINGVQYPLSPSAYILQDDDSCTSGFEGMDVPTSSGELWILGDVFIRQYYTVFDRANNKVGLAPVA

IC50 ([1]; human alpha thrombin, individual replicates R1-R3, read-out: IC50): 1240 nM and 961 nM and 880 nM
Ki ([1]; human alpha thrombin, individual replicates R1-R3, read-out: Ki): 952 nM and 740 nM and 678 nM
Ki ([1]; human alpha thrombin, average of R1-R3, read-out: Ki Average): 790 nM
Human alpha thrombin inhibition, slope normalized to DMSO ([1]; peptide 1.02E-03 uM): 99.6 and 102.5 and 100.4
Human alpha thrombin inhibition, slope normalized to DMSO ([1]; peptide 1.04E+00 uM): 62.7 and 63.2 and 64.7
Human alpha thrombin inhibition, slope normalized to DMSO ([1]; peptide 1.27E-04 uM): 101.4 and 100.0 and 103.5
Human alpha thrombin inhibition, slope normalized to DMSO ([1]; peptide 1.30E-01 uM): 93.3 and 94.2 and 91.8
Human alpha thrombin inhibition, slope normalized to DMSO [1, 7]: 35.6 and 42.1 and 48.0
Human alpha thrombin inhibition, slope normalized to DMSO ([1]; peptide 1.63E-02 uM): 100.3 and 97.9 and 93.0
Human alpha thrombin inhibition, slope normalized to DMSO ([1]; peptide 1.67E+01 uM): 19.0 and 23.6 and 27.7
Human alpha thrombin inhibition, slope normalized to DMSO ([1]; peptide 2.03E-03 uM): 98.3 and 97.0 and 102.8
Human alpha thrombin inhibition, slope normalized to DMSO ([1]; peptide 2.08E+00 uM): 53.1 and 49.4 and 51.7
Human alpha thrombin inhibition, slope normalized to DMSO ([1]; peptide 2.54E-04 uM): 100.9 and 99.7
Human alpha thrombin inhibition, slope normalized to DMSO ([1]; peptide 2.60E-01 uM): 86.0 and 78.5 and 87.5
Human alpha thrombin inhibition, slope normalized to DMSO ([1]; peptide 3.18E-05 uM): 105.6 and 95.1 and 100.8
Human alpha thrombin inhibition, slope normalized to DMSO ([1]; peptide 3.26E-02 uM): 99.1 and 97.3 and 99.5
Human alpha thrombin inhibition, slope normalized to DMSO ([1]; peptide 3.33E+01 uM): 14.9 and 14.8 and 17.4
Human alpha thrombin inhibition, slope normalized to DMSO ([1]; peptide 4.07E-03 uM): 104.1 and 99.4 and 102.2
Human alpha thrombin inhibition, slope normalized to DMSO ([1]; peptide 4.17E+00 uM): 44.0 and 45.0 and 45.3
Human alpha thrombin inhibition, slope normalized to DMSO ([1]; peptide 5.09E-04 uM): 89.0 and 97.2 and 100.9
Human alpha thrombin inhibition, slope normalized to DMSO ([1]; peptide 5.21E-01 uM): 80.8 and 75.1 and 78.9
Human alpha thrombin inhibition, slope normalized to DMSO ([1]; peptide 6.36E-05 uM): 99.9 and 99.1 and 102.2
Human alpha thrombin inhibition, slope normalized to DMSO ([1]; peptide 6.51E-02 uM): 97.0 and 92.8 and 96.0
Human alpha thrombin inhibition, slope normalized to DMSO ([1]; peptide 6.67E+01 uM): 27.9 and 32.4 and 47.7
Human alpha thrombin inhibition, slope normalized to DMSO ([1]; peptide 8.14E-03 uM): 99.8 and 97.9 and 99.0
Human alpha thrombin inhibition, slope normalized to DMSO ([1]; peptide 8.33E+00 uM): 29.9 and 28.6 and 29.1
Ki ([2]; average of R1-R3, read-out: Ki Average): 357 nM
Slope normalized to DMSO (proteolytic substrate cleavage over time) ([2]; peptide 1.02E-03 uM): 100.5 and 96.1 and 105.7
Slope normalized to DMSO (proteolytic substrate cleavage over time) ([2]; peptide 1.04E+00 uM): 47.3 and 45.5 and 46.2
Slope normalized to DMSO (proteolytic substrate cleavage over time) ([2]; peptide 1.27E-04 uM): 98.2 and 95.5 and 104.0
Slope normalized to DMSO (proteolytic substrate cleavage over time) ([2]; peptide 1.30E-01 uM): 88.1 and 88.0 and 95.1
Rat alpha thrombin inhibition, slope normalized to DMSO [2, 7]: 29.3 and 31.0 and 24.5
Slope normalized to DMSO (proteolytic substrate cleavage over time) ([2]; peptide 1.63E-02 uM): 95.3 and 90.7 and 94.2
Rat alpha thrombin inhibition, slope normalized to DMSO ([2]; peptide 1.67E+01 uM): 11.1 and 9.5 and 16.8
Slope normalized to DMSO (proteolytic substrate cleavage over time) ([2]; peptide 2.03E-03 uM): 96.6 and 95.4 and 92.0
Rat alpha thrombin inhibition, slope normalized to DMSO ([2]; peptide 2.08E+00 uM): 34.7 and 33.7 and 44.2
Slope normalized to DMSO (proteolytic substrate cleavage over time) ([2]; peptide 2.54E-04 uM): 95.8 (2×) and 100.3
Slope normalized to DMSO (proteolytic substrate cleavage over time) ([2]; peptide 2.60E-01 uM): 75.1 and 76.7 and 74.0
Slope normalized to DMSO (proteolytic substrate cleavage over time) ([2]; peptide 3.18E-05 uM): 100.9 and 96.6 and 106.2
Slope normalized to DMSO (proteolytic substrate cleavage over time) ([2]; peptide 3.26E-02 uM): 100.1 and 92.2 and 91.8
Rat alpha thrombin inhibition, slope normalized to DMSO ([2]; peptide 3.33E+01 uM): 8.8 and 9.0 and 13.6
Slope normalized to DMSO (proteolytic substrate cleavage over time) ([2]; peptide 4.07E-03 uM): 100.3 and 98.9 and 95.8
Rat alpha thrombin inhibition, slope normalized to DMSO ([2]; peptide 4.17E+00 uM): 29.3 and 26.2 and 29.7
Slope normalized to DMSO (proteolytic substrate cleavage over time) ([2]; peptide 5.09E-04 uM): 99.8 and 96.7 and 105.4
Slope normalized to DMSO (proteolytic substrate cleavage over time) ([2]; peptide 5.21E-01 uM): 62.1 and 60.1 and 59.5
Slope normalized to DMSO (proteolytic substrate cleavage over time) ([2]; peptide 6.36E-05 uM): 99.5 and 99.0 and 105.5
Slope normalized to DMSO (proteolytic substrate cleavage over time) ([2]; peptide 6.51E-02 uM): 92.1 and 90.2 and 94.2
Rat alpha thrombin inhibition, slope normalized to DMSO ([2]; peptide 6.67E+01 uM): 22.0 and 23.9 and 12.4
Slope normalized to DMSO (proteolytic substrate cleavage over time) ([2]; peptide 8.14E-03 uM): 88.9 and 94.1 and 99.5
Rat alpha thrombin inhibition, slope normalized to DMSO ([2]; peptide 8.33E+00 uM): 16.6 and 15.4 and 23.2
IC50 ([2]; single replicates R1-R3, read-out: IC50): 640 nM and 631 nM and 666 nM
Ki ([2]; single replicates R1-R3, read-out: Ki): 354 nM and 349 nM and 368 nM
SGF stability, Residual peptide Average ([3]; after 8 h vs 0 h (TIC), average of R1-R3): 95.02
SGF stability, Residual peptide ([3]; after 8 h vs 0 h (TIC), single replicates R1-R3): 100.52 and 97.58 and 86.97
remaining at 8 h ([3]; pig, simulated gi fluid, 8 h, 37 °C, pH 1.2, read-out: Proteolytic stability: SGF (8 h) % remaining): 95 ± 7%
remaining at 8 h [4]: 87 ± 11%
SIF stability, Residual peptide Average ([5]; average of R1-R3): 87.22
SIF stability, Residual peptide ([5]; single replicates R1-R3): 90.22 and 74.69 and 96.74
PAMPA permeability: % permeability ([6]; 50 μM, 12–18 h, acceptor concentration relative to equilibrium): 1.27 ± 0.67%
Papp at 50 μM ([6]; PAMPA, pH 7.4): 0.0776 ×10⁻⁶ cm/s
Permeability% Average ([6]; PAMPA, average of R1-R3): 1.3%
Permeability% R1 ([6]; PAMPA, replicate R1, TIC of top well sample relative to sample at theoretical equilibrium): 2.04%
Permeability% R3 ([6]; PAMPA, replicate R3, TIC of top well sample relative to sample at theoretical equilibrium): 1.01%
Structure (SMILES): CN1CCC(=O)NCCSCCS(=O)(=O)CCSC[C@H](NC(=O)c2ccc(Cl)s2)C(=O)N[C@@H](Cc2ccccc2)C1=O [compound 14]
